Values of other authors, collected in patent US20080051459A1, “LONG TERM 24-HOUR INTESTINAL ADMINISTRATION OF LEVODOPA/CARBIDOPA” (Solvay Pharmaceuticals GmbH, priority 2006, published 2008).

System: patient
Conditions: one patient; from 86 to 100 mg/hour in about 5 weeks

In the case of N[C@@H](Cc1ccc(O)c(O)c1)C(=O)O [levodopa], the “Increase in administration rate (dose requirement)” value is listed as 16%.
